According to patent publication US8765123B1, “Compositions and methods for the treatment and prevention of infections caused by Staphylococcus aureus bacteria” (Rutgers, The State University of New Jersey, priority 2007, dated 2014):
“Also recorded” adds a separate entry of the source.

Columns and labels:
Assay type in all cases: cell-based, Staphylococcus aureus
[1] = system: S. aureus SH1000 cells; assay: Autoaggregation and biofilm formation in PET tubes with supplemented TSB medium; conditions: medium supplemented with 100 μg/ml, 16 h
Protocol: (§1) S. aureus Strain SH1000 (Horsburgh et al., 2002. J. Bacteriol. 184:5457-5467) was used in all of the following examples. The bacteria were passaged weekly on blood agar and stored at 4° C. Biofilms were cultured in Tryptic Soy broth (Becton-Dickinson, Sparks, Md.) containing 6 g of yeast extract and 8 g of glucose per liter (TSB medium). All cultures were incubated at 37° C.
These experiments were carried out as described above, except that biofilms were grown in 16-mm×100-mm PET tubes (2 ml culture vol) in a rotary shaker for 16 h.

[2] = system: S. aureus Strain SH1000 biofilms; assay: Detachment of pre-formed S. aureus biofilms in microtiter plate wells, crystal violet staining
Protocol: as §1
A biofilm formation assay was carried out as follows. A loopful of cells from an agar plate was transferred to a polypropylene microcentrifuge tube containing 200 μl of TSB medium. The cells were crushed with a disposable pellet pestle, vortexed for 30 sec, diluted to 1 ml in fresh TSB medium, and then passed through a 5-μm pore-size syringe filter to remove large clumps of cells as previously described (Kaplan & Fine, 2002. Appl. Environ. Microbiol. 68:4943-4950). Filtered cells were diluted to 10^3-10^5 CFU/ml in TSB medium. Aliquots of cells (200 μl each) were transferred to the wells of a 96-well tissue-culture-treated polystyrene microtiter plate (Falcon no. 324662, Becton-Dickinson) and the plate was incubated for 24 h. The biofilms were rinsed once with water and then treated with 200 μl of deoxyribonuclease I (bovine deoxyribonuclease I, purchased from Sigma Chemical Company) at 100 μg/ml in 150 mM NaCl, 1 mM CaCl2. Control biofilms were treated with 200 μl of 150 mM NaCl, 1 mM CaCl2 alone. After 10 min at 37° C., biofilms were rinsed with water and then dried. Biofilms were stained for 1 min with 200 μl of Gram's crystal violet stain (catalog no. 23255960, Fisher Scientific, Fair Lawn, N.J.) and then rinsed with water and dried.
The concentration of deoxyribonuclease I was 100 μg/ml and the treatment time was 10 min. In this case, the amount of biofilm biomass remaining in the well was quantitated by measuring the A595 of the crystal violet stained biomass as described above, and the percent of biofilm cell detachment was calculated using the formula: 1−(A595[buffer+deoxyribonuclease I]/A595[buffer alone])×100.

[3] = system: SH1000 biofilms; assay: Biofilm formation in 96-well microtiter plates in supplemented TSB medium, crystal violet A595
[4] = system: S. aureus biofilm cells; assay: Killing of biofilm cells in microplate wells, CFU/well enumeration; conditions: 24-h biofilm; deoxyribonuclease I alone, 100 μg/ml for 10 min; FIG. 8
Protocol: Biofilms were grown for 24 h in 96-well microtiter plates as described above. Biofilms were rinsed once with water and then treated with 200 μl of TSB medium containing 100 μg/ml of deoxyribonuclease I. Control wells were treated with 200 μl of TSB medium alone. […] Control wells received 20 μl of water. […] This reaction was carried out in 100 μg/ml in 150 mM NaCl, 1 mM CaCl2 as described above. After 10 min, cells were mixed and then serial dilutions were plated on agar. For S. aureus biofilms treated with deoxyribonuclease I, cells were mixed and then a 50-μl aliquot of cells was diluted in 50 ml of phosphate buffered saline. The cells were passed through an analytical test filter funnel (no. 145-2020; Nalgene, Rochester, N.Y.), and the filter was rinsed with 250 ml of sterile water, aseptically removed from the filter unit, and placed on a blood agar plate. Colonies were enumerated after 24 h.

Substance: deoxyribonuclease I
- biofilm formation in tubes at the air-liquid interface (crystal violet staining) ([1]; FIG. 5): much less biofilm formation; also recorded: inhibited biofilm formation at the air-liquid interface
- autoaggregation (clumping) of cells ([1]; rotary shaker, FIG. 4): much less clumping; also recorded: formed smaller aggregates
- detachment of biofilm (crystal violet staining material remaining in the well) ([2]; 24-h-old biofilm, 100 μg/ml, 10 min treatment, FIG. 1): significant detachment of the biofilm; also recorded: nearly complete detachment
- concentration dependence of biofilm detachment (Absorbance at 595 nm) ([2]; 24-h-old biofilm, 10 min treatment, FIG. 2): dependent on the deoxyribonuclease I concentration
- detachment of biofilm (A595 of crystal violet) ([2]; 24-h-old biofilm, concentrations between 0.1 and 10 μg/ml, 10 min, FIG. 2): partial detachment
- detachment of biofilm (A595 of crystal violet) ([2]; 24-h-old biofilm, concentrations greater than 10 μg/ml, 10 min, FIG. 2): near complete detachment
- detachment of biofilm (A595 of crystal violet) ([2]; 24-h-old biofilm, concentrations less than 0.1 μg/ml, 10 min, FIG. 2): little detachment
- detachment of biofilms of different age (percent of biofilm cell detachment from A595) ([2]; biofilms grown for 5, 8, 12 or 24 h, 100 μg/ml, 10 min, FIG. 3): capable of detaching; also recorded: significant detachment of all of the S. aureus biofilms, regardless of their age
- inhibition of biofilm formation (A595 of crystal violet stained biomass), concentration dependence ([3]; increasing concentrations in medium, FIG. 7): dependent on the deoxyribonuclease I concentration; also recorded: inhibited SH1000 biofilm formation in a dose-dependent manner
- biofilm colony morphology in microplate wells ([3]; medium supplemented with 100 μg/ml, 24 h, FIG. 6): incapable of forming distinct biofilm colonies; also recorded: formed a dense film that uniformly covered the microwell surface, but which readily detached after gentle rinsing
- decrease in CFU/well values (killing of biofilm cells) [4]: resistant to killing; also recorded: did not exhibit a significant decrease
